Test results from patent US10968210B2, “Diamino-alkylamino-linked arylsulfonamide compounds with selective activity in voltage-gated sodium channels” (Merck Sharp & Dohme Corp., priority 2016, dated 2021).

Key:
[1] = target: T1, human Nav 1.5 channels stably expressed in HEK 293 cells (Homo sapiens, UniProt Q14524); test: IonWorks Quattro automated patch-clamp, inactivated state block of Nav 1.5 (reported as ratio to Nav 1.7 potency); type: cell-based; conditions: selectivity for Nav 1.7 over Nav 1.5, both by IonWorks
T1 construct: expressed in transfected cells; host or cells: HEK 293
T1 sequence (Q14524 whole entry): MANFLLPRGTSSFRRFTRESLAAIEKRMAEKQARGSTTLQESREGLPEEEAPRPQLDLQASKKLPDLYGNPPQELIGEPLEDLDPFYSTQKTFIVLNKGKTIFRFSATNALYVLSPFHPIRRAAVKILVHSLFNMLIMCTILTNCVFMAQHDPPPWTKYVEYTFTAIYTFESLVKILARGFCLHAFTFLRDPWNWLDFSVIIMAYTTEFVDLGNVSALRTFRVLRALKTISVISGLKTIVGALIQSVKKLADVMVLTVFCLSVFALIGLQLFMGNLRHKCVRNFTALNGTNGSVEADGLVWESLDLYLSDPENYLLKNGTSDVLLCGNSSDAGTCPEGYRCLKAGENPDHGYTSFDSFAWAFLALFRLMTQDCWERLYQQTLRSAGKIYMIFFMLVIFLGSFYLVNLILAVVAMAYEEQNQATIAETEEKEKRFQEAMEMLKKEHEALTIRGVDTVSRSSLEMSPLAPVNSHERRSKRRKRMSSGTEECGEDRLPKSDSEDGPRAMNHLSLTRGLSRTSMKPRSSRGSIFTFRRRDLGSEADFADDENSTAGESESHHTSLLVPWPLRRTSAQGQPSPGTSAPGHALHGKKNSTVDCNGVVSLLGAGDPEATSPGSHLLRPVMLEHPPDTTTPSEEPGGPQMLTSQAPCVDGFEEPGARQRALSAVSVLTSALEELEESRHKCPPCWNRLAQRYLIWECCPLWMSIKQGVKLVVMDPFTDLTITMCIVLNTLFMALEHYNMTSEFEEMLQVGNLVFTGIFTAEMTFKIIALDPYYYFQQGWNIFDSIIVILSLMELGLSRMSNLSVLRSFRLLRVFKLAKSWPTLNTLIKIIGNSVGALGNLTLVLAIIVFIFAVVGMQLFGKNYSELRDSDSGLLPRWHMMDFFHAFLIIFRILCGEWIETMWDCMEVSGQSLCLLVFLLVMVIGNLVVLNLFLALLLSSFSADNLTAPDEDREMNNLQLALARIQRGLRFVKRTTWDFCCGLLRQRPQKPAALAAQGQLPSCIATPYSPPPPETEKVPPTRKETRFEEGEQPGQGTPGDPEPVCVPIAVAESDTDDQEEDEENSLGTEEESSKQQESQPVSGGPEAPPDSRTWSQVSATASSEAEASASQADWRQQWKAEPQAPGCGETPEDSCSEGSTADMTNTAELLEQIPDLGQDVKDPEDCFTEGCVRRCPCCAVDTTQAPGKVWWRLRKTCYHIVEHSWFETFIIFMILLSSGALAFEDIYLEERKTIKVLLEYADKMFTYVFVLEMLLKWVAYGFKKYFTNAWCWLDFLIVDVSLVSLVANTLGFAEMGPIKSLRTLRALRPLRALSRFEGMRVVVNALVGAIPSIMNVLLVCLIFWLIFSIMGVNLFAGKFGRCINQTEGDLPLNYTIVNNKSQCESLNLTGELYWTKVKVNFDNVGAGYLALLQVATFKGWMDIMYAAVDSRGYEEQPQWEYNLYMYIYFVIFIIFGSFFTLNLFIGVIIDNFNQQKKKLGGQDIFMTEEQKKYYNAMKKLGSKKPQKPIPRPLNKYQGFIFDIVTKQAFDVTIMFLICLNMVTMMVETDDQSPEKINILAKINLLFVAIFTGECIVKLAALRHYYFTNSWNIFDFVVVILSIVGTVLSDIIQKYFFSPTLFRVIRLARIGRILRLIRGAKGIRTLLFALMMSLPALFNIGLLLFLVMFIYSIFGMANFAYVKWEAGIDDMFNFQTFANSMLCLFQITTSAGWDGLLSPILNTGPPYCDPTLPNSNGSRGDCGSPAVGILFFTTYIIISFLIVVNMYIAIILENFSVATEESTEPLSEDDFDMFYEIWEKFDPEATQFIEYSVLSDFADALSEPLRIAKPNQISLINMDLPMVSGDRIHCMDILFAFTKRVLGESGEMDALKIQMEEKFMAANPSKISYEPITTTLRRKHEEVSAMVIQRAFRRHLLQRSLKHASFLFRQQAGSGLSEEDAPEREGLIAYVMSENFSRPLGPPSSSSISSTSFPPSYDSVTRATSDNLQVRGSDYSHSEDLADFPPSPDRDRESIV
Protocol: IonWorks® Experimental Procedure
Compounds were tested on human Nav 1.7 and Nav 1.5 channels stably expressed in HEK 293 cells. Sodium current measurements on IonWorks Quattro: An automated patch-clamp assay on the IonWorks Quattro platform (Molecular Devices) was used to measure state-dependent inhibition of human Nav 1.7 and Nav 1.5 channels. Cells were sealed on a planar substrate using the Population Patch Plate (PPC) technology. Electrical access was obtained using both nystatin and amphotericin. A double-pulse protocol was used for the determination of IC50 values for inactivated state block. Nav 1.7 and Nav 1.5 expressing cells were voltage clamped at −100 mV and −110 mV, respectively. A depolarizing prepulse to −10 mV (Nav 1.7) or −30 mV (Nav 1.5) for 1000 ms followed by a 10 ms repolarization to ˜100 mV (Nav1.7) or −110 mV (Nav 1.5) was given to generate fractional channel inactivation of ˜50%, followed by a 10 ms test pulse to −10 mV (Nav 1.7) or −30 mV (Nav 1.5) to measure peak current in control conditions and after compound addition. The following recording solutions were used (mM). External: 150 NaCl, 2 CaCl2, 5 KCl, 1 Mg Cl2, 10 HEPES, 12 Dextrose; internal: 120 CsF, 30 CsCl, 10 EGTA, 5 HEPES, 5 NaF, 2 MgCl2.
For all electrophysiology experiments, offline analysis was used to determine percent inhibition as a function of drug concentration. IC50 values were determined by fitting to the Hill equation.
The various compounds in Examples 1 through 4 and Tables 1 through 3 exemplified above were assayed for activity and selectivity using the foregoing IonWorks® technique. The results are reported in the following paragraph in a format expressing the identification of the compound with reference Example and compound (e.g. Ex 1-9 is Example 1, compound 9) followed by the observed potency in nM and the ratio of Nav1.7 potency: Nav1.5 potency as described here. Thus, Ex1-9: 1.7=65/ratio=641 identifies compound Example 1, compound 9 as having 65 nM potency for the Nav 1.7 sodium ion channel (as measured by IonWorks®) and a ratio of 641 Nav 1.7: Nav 1.5 potency, determined by IonWorks® measurement.

[2] = target: T2, human Nav 1.7 channels stably expressed in HEK 293 cells (Homo sapiens, UniProt Q15858); test: IonWorks Quattro automated patch-clamp, inactivated state block of Nav 1.7; type: cell-based; conditions: double-pulse protocol, HEK 293 cells held at -100 mV, read-out: potency for the Nav 1.7 sodium ion channel (IC50, IonWorks)
T2 construct: expressed in transfected cells; host or cells: HEK 293
T2 sequence (Q15858 whole entry): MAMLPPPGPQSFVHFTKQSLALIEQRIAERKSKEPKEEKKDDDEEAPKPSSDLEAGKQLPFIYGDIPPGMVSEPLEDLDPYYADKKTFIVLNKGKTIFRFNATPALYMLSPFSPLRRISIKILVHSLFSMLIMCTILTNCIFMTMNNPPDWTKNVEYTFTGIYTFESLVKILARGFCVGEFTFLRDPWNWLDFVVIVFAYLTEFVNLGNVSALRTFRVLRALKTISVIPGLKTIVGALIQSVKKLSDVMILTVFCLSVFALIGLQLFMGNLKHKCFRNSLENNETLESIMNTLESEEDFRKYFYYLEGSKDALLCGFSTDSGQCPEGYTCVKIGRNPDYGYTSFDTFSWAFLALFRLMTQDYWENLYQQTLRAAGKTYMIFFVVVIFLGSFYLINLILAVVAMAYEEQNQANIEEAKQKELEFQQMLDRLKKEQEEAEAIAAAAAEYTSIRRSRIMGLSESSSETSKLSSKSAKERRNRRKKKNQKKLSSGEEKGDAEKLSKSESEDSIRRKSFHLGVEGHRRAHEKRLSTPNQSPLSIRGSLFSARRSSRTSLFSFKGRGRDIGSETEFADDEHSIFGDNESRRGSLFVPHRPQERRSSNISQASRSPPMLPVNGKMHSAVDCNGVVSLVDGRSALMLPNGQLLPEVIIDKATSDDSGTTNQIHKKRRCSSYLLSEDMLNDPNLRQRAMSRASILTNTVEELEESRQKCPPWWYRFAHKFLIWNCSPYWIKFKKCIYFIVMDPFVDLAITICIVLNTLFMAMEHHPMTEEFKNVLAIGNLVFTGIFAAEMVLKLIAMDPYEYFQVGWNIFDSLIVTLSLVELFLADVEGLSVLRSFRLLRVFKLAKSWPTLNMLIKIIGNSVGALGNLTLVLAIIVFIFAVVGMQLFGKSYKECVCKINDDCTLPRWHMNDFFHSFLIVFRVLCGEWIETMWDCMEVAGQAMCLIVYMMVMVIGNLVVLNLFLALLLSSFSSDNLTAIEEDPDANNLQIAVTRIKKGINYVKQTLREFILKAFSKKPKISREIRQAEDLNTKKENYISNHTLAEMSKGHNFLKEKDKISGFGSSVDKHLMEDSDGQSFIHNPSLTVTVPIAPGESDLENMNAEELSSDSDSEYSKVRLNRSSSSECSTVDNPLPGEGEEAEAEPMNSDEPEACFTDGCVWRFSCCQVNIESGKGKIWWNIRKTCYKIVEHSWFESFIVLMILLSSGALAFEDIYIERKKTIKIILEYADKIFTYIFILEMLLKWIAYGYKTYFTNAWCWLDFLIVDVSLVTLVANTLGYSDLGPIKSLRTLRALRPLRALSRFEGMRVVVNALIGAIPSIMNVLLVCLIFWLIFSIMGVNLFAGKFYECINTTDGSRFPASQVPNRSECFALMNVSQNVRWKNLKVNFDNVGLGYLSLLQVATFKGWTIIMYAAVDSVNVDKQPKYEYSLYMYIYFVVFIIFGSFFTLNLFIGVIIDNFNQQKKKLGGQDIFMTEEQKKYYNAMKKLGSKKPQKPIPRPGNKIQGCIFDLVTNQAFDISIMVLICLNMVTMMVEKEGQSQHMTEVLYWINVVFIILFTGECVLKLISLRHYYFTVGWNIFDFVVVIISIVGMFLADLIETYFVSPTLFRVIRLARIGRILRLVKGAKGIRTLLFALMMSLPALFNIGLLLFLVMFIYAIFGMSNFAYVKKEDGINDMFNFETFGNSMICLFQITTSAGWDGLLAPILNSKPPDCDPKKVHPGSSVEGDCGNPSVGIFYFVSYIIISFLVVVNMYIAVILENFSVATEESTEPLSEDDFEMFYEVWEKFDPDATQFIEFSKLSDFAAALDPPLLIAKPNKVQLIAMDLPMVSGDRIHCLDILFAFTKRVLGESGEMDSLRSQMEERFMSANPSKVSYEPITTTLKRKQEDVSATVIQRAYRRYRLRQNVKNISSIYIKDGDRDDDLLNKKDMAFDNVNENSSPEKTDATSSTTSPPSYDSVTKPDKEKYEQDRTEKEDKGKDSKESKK
Procedure, shortened: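 Inactivated-state block was recorded by automated perforated patch (nystatin plus amphotericin) using a double-pulse protocol. Holding was −100 mV (Nav1.7) or −110 mV (Nav1.5), with a 1000 ms prepulse to −10/−30 mV giving ~50% inactivation, then a 10 ms test pulse. IC50s came from Hill fits of peak current inhibition.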

Row | SMILES | ratio of Nav 1.7 : Nav 1.5 potency (IonWorks) [1] | IC50 [2] [µM]
1 | O=S(=O)(Nc1nccs1)c1cc(Cl)c(NCCCCCNCC2CCCNC2)cc1F (centres unmarked) [Ex 9-04, 5-chloro-2-fluoro-4-({5-[(piperidin-3-ylmethyl)-amino]-pentyl}amino)-N-1,3-thiazol-2-yl-benzenesulfonamide] | > 1320 | 0.025
2 | C[C@@H](N)CNCCCCCNc1cc(F)c(S(=O)(=O)Nc2nccs2)cc1Cl [Ex 9-05, 4-[(5-{[(2R)-2-aminopropyl]-amino}penty)amino]-5-chloro-2-fluoro-N-1,3-thiazol-2-yl-benzenesulfonamide] | > 420 | 0.079
3 | O=S(=O)(Nc1nccs1)c1cc(Cl)c(NCCCCCNCC2CCN2)cc1F (centres unmarked) [Ex 9-06, 4-({5-[(azetidin-2-ylmethyl)amino]-pentyl}amino)-5-chloro-2-fluoro-N-1,3-thiazol-2-yl-benzenesulfonamide] | > 160 | 0.2
4 | O=S(=O)(Nc1nccs1)c1cc(Cl)c(NCC(CCNC[C@@H]2CCCN2)c2ccccc2)cc1F (stereo partly drawn) [Ex 10-3, 5-chloro-2-fluoro-4-((2-phenyl-4-(((S)-pyrrolidin-2-ylmethyl)amino)butyl)amino)-N-(thiazol-2-yl)benzenesulfonamide] | > 423 | 0.078
5 | NC[C@H]1CCN1CCCCNc1cc(F)c(S(=O)(=O)Nc2ncns2)cc1Cl [Ex 16-02, 4-({4-[(2R)-2-(aminomethyl)-azetidin-1-yl]butyl}amino)-5-chloro-2-fluoro-N-1,2,4-thiadiazol-5-yl-benzene-sulfonamide] | > 1650 | 0.02
6 | CN[C@@H]1CCN(CCCCNc2cc(F)c(S(=O)(=O)Nc3ncns3)cc2Cl)C1 [Ex 16-03, 5-chloro-2-fluoro-4-({4-[(3R)-3-(methylamino)pyrrolidin-1-yl]-butyl}-amino)-N-1,2,4-thiadiazol-5-ylbenzene-sulfonamide] | 1930 | 0.014
7 | O=S(=O)(Nc1ncc(F)s1)c1cc(Cl)c(NCCCCNCCNC2C3CC4CC(C3)CC2C4)cc1F (centres unmarked) [Ex 16-07, 5-chloro-2-fluoro-N-(5-fluoro-1,3-thiazol-2-yl)-4-[(4-{[2-(tricyclo[3.3.1.1~3,7~]dec-2-yl-amino)-ethyl]amino}butyl)-amino]-benzene-sulfonamide] | > 17400 | 0.0019
8 | NC[C@@H]1CCN1CCCCNc1cc(F)c(S(=O)(=O)Nc2ncc(F)s2)cc1Cl [Ex 16-11, 4-({4-[(2S)-2-(aminomethyl)azetidin-1-yl]-butyl}amino)-5-chloro-2-fluoro-N-(5-fluoro-1,3-thiazol-2-yl)-benzene-sulfonamide] | > 1530 | 0.015
9 | O=S(=O)(Nc1ncc(F)s1)c1cc(Cl)c(NCCCCN2C[C@H]3CCCN[C@H]3C2)cc1F [Ex 16-23, 5-chloro-2-fluoro-N-(5-fluoro-1,3-thiazol-2-yl)-4-({4-[(4aR,7aR)-octahydro-6H-pyrrolo[3,4-b]pyridin-6-yl]butyl}amino)benzene-sulfonamide] | > 2357 | 0.014
10 | N#Cc1cc(S(=O)(=O)Nc2nccs2)c(F)cc1NCCCCN[C@@H]1CCNC1 [Ex 16-39, 5-cyano-2-fluoro-4-({4-[(3R)-pyrrolidin-3-ylamino]-butyl}amino)-N-1,3-thiazol-2-yl-benzenesulfonamide] | > 917 | 0.036
11 | NCC(F)CNCCCCNc1cc(F)c(S(=O)(=O)Nc2ncc(F)s2)cc1Cl (centres unmarked) [Ex 16-46, 4-({4-[(3-amino-2-fluoro-propyl)amino]butyl}amino)-5-chloro-2-fluoro-N-(5-fluoro-1,3-thiazol-2-yl)-benzenesulfonamide] | > 970 | 0.034
12 | CNCCNCCCCNc1cc(F)c(S(=O)(=O)Nc2ncns2)cc1F [Ex 16-47, 2,5-difluoro-4-[(4-{[2-(methylamino)ethyl]amino}-butyl)amino]-N-1,2,4-thiadiazol-5-ylbenzene-sulfonamide] | > 460 | 0.074
13 | CNCCNCCCCNc1cc(F)c(S(=O)(=O)Nc2nc(C)cs2)cc1Cl [Ex 16-51, 5-chloro-2-fluoro-4-[(4-{[2-(methylamino)ethyl]amino}-butyl)amino]-N-(4-methyl-1,3-thiazol-2-yl)benzene-sulfonamide] | > 943 | 0.035
